{"source": "PubChem BioAssay AID248", "about": "(DTP/NCI, 2004)", "test_system": "L1210 leukemia ip in BDF1 mice, survival T/C", "assay": "NCI In Vivo Anticancer Drug Screen. Data for tumor model L1210 Leukemia (intraperitoneal) in B6D2F1 (BDF1) mice", "conditions": "endpoint: mean survival time, higher = longer survival", "summary_of_the_method": "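Antitumor effect is assessed in tumor-bearing animals. Survival in the compound arm is compared with a vehicle-dosed control arm and expressed as their quotient.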", "key": {"[1]": {"conditions": "dose: 100.0 mg/kg/injection, schedule: Q01DX009 (ip), vehicle: Klucel (hydroxypropylcellulose) (HPC)"}, "[2]": {"conditions": "dose: 100.0 mg/kg/injection, schedule: Q04DX002 (ip), vehicle: Klucel (hydroxypropylcellulose) (HPC)"}, "[3]": {"conditions": "dose: 100.0 mg/kg/injection, schedule: Q04DX003 (ip), vehicle: Klucel (hydroxypropylcellulose) (HPC)"}, "[4]": {"conditions": "dose: 200.0 mg/kg/injection, schedule: Q01DX009 (ip), vehicle: Klucel (hydroxypropylcellulose) (HPC)"}, "[5]": {"conditions": "dose: 200.0 mg/kg/injection, schedule: Q04DX002 (ip), vehicle: Klucel (hydroxypropylcellulose) (HPC)"}, "[6]": {"conditions": "dose: 200.0 mg/kg/injection, schedule: Q04DX003 (ip), vehicle: Klucel (hydroxypropylcellulose) (HPC)"}, "[7]": {"conditions": "dose: 400.0 mg/kg/injection, schedule: Q01DX009 (ip), vehicle: Klucel (hydroxypropylcellulose) (HPC)"}, "[8]": {"conditions": "dose: 400.0 mg/kg/injection, schedule: Q04DX002 (ip), vehicle: Klucel (hydroxypropylcellulose) (HPC)"}, "[9]": {"conditions": "dose: 400.0 mg/kg/injection, schedule: Q04DX003 (ip), vehicle: Klucel (hydroxypropylcellulose) (HPC)"}, "[10]": {"conditions": "dose: 100.0 mg/kg/injection, schedule: Q01DX009 (ip), vehicle: saline with Tween-80"}, "[11]": {"conditions": "dose: 200.0 mg/kg/injection, schedule: Q01DX009 (ip), vehicle: saline with Tween-80"}}, "note": "“And” between values parts separate entries of the source, which are not always exact repeats. Equal values may be shown once. Toxic doses and inconclusive results are not listed. Peptide text beside a SMILES is read from it. * marks the point of attachment. Cbz = O=C(OCc1ccccc1)*; OtBu = CC(C)(C)O*"}
{"molecule": "Cc1cccc(C(O)c2cnc(C)n2Cc2ccccc2)c1", "note": "(stereo not given)", "values": [{"measurement": "T/C", "setting": "dose: 100.0 mg/kg/injection, schedule: Q01DX001 (ip), vehicle: Klucel (hydroxypropylcellulose) (HPC)", "result": "90 % of control"}, {"measurement": "T/C", "setting": "[1]", "result": "100 % of control and 86 % of control"}, {"measurement": "T/C", "setting": "[2]", "result": "108 % of control and 89 % of control"}, {"measurement": "T/C", "setting": "[3]", "result": "92 % of control"}, {"measurement": "T/C", "setting": "dose: 200.0 mg/kg/injection, schedule: Q01DX001 (ip), vehicle: Klucel (hydroxypropylcellulose) (HPC)", "result": "100 % of control"}, {"measurement": "T/C", "setting": "[4]", "result": "97 % of control and 89 % of control"}, {"measurement": "T/C", "setting": "[5]", "result": "96 % of control"}, {"measurement": "T/C", "setting": "[6]", "result": "96 % of control"}, {"measurement": "T/C", "setting": "dose: 400.0 mg/kg/injection, schedule: Q01DX001 (ip), vehicle: Klucel (hydroxypropylcellulose) (HPC)", "result": "97 % of control"}, {"measurement": "T/C", "setting": "[7]", "result": "93 % of control and 97 % of control"}, {"measurement": "T/C", "setting": "[8]", "result": "93 % of control and 101 % of control"}, {"measurement": "T/C", "setting": "[9]", "result": "94 % of control"}]}
{"molecule": "CC1CN=C(c2ccc(NC(=O)C3CCC(C(=O)Nc4ccc(C5=NCC(C)N5)cc4)CC3)cc2)N1", "note": "(stereo not given)", "values": [{"measurement": "T/C", "setting": "dose: 31.0 mg/kg/injection, schedule: Q01DX015 (ip), vehicle: methylcellulose (MC)", "result": "159 % of control"}, {"measurement": "T/C", "setting": "dose: 62.0 mg/kg/injection, schedule: Q01DX015 (ip), vehicle: methylcellulose (MC)", "result": "113 % of control"}]}
{"molecule": "N=C(N)c1ccc(C(=N)N)cc1", "values": [{"measurement": "T/C", "setting": "dose: 25.0 mg/kg/injection, schedule: Q01DX009 (ip), vehicle: water", "result": "95 % of control"}, {"measurement": "T/C", "setting": "dose: 50.0 mg/kg/injection, schedule: Q01DX009 (ip), vehicle: water", "result": "95 % of control and 99 % of control"}, {"measurement": "T/C", "setting": "dose: 100.0 mg/kg/injection, schedule: Q01DX009 (ip), vehicle: water", "result": "97 % of control and 103 % of control"}]}
{"molecule": "CCOC(=O)C(Cc1ccc(OCc2ccccc2)c(OCc2ccccc2)c1)(NC=O)C(=O)OCC", "values": [{"measurement": "T/C", "setting": "dose: 100.0 mg/kg/injection, schedule: Q01DX001 (ip), vehicle: other", "result": "94 % of control"}, {"measurement": "T/C", "setting": "dose: 200.0 mg/kg/injection, schedule: Q01DX001 (ip), vehicle: other", "result": "92 % of control"}, {"measurement": "T/C", "setting": "dose: 400.0 mg/kg/injection, schedule: Q01DX001 (ip), vehicle: other", "result": "87 % of control"}]}
{"molecule": "CCc1cc(C)cc(OC(=O)Nc2cccc(Cl)c2)c1", "values": [{"measurement": "T/C", "setting": "[10]", "result": "88 % of control"}, {"measurement": "T/C", "setting": "[11]", "result": "90 % of control"}]}
{"molecule": "Nc1c2ccccc2cc2cccc[n+]12", "values": [{"measurement": "T/C", "setting": "dose: 9.38 mg/kg/injection, schedule: Q01DX001 (ip), vehicle: other", "result": "101 % of control and 100 % of control"}, {"measurement": "T/C", "setting": "dose: 18.75 mg/kg/injection, schedule: Q01DX001 (ip), vehicle: other", "result": "97 % of control and 99 % of control"}]}
{"molecule": "CCCC(=O)CC(=O)C(F)(F)F.CCCC(=O)CC(=O)C(F)(F)F.CCCC(=O)CC(=O)C(F)(F)F.[Er]", "values": [{"measurement": "T/C", "setting": "dose: 100.0 mg/kg/injection, schedule: Q01DX009 (ip), vehicle: other", "result": "104 % of control"}, {"measurement": "T/C", "setting": "dose: 100.0 mg/kg/injection, schedule: Q04DX003 (ip), vehicle: other", "result": "110 % of control"}, {"measurement": "T/C", "setting": "dose: 200.0 mg/kg/injection, schedule: Q01DX009 (ip), vehicle: other", "result": "106 % of control"}, {"measurement": "T/C", "setting": "dose: 200.0 mg/kg/injection, schedule: Q04DX003 (ip), vehicle: other", "result": "107 % of control"}, {"measurement": "T/C", "setting": "dose: 400.0 mg/kg/injection, schedule: Q04DX003 (ip), vehicle: other", "result": "108 % of control"}]}
{"molecule": "O=[N+]([O-])c1ccc(C[Se]c2ncnc3c2ccn3C2OC(CO)C(O)C2O)cc1", "note": "(stereo not given)", "values": [{"measurement": "T/C", "setting": "dose: 6.25 mg/kg/injection, schedule: Q01DX009 (ip), vehicle: saline", "result": "95 % of control"}, {"measurement": "T/C", "setting": "dose: 12.5 mg/kg/injection, schedule: Q01DX005 (ip), vehicle: saline", "result": "102 % of control"}, {"measurement": "T/C", "setting": "dose: 12.5 mg/kg/injection, schedule: Q01DX009 (ip), vehicle: saline", "result": "91 % of control"}, {"measurement": "T/C", "setting": "dose: 25.0 mg/kg/injection, schedule: Q01DX005 (ip), vehicle: saline", "result": "105 % of control"}, {"measurement": "T/C", "setting": "dose: 25.0 mg/kg/injection, schedule: Q01DX009 (ip), vehicle: saline", "result": "102 % of control"}]}
{"molecule": "Nc1cccc2c1C(=O)c1cccc(N)c1C2=O", "values": [{"measurement": "T/C", "setting": "[3]", "result": "101 % of control"}, {"measurement": "T/C", "setting": "[6]", "result": "96 % of control"}, {"measurement": "T/C", "setting": "[9]", "result": "96 % of control"}]}
{"molecule": "O=C(CN(CCO)CCO)c1ccc([N+](=O)[O-])cc1", "values": [{"measurement": "T/C", "setting": "dose: 75.0 mg/kg/injection, schedule: Q01DX001 (ip), vehicle: saline", "result": "101 % of control"}]}
{"molecule": "COc1ccc(Br)cc1/C=N/N=C/c1cc(Br)ccc1OC", "values": [{"measurement": "T/C", "setting": "[10]", "result": "89 % of control"}, {"measurement": "T/C", "setting": "dose: 100.0 mg/kg/injection, schedule: Q04DX003 (ip), vehicle: saline with Tween-80", "result": "111 % of control"}, {"measurement": "T/C", "setting": "[11]", "result": "92 % of control"}, {"measurement": "T/C", "setting": "dose: 200.0 mg/kg/injection, schedule: Q04DX003 (ip), vehicle: saline with Tween-80", "result": "93 % of control"}, {"measurement": "T/C", "setting": "dose: 400.0 mg/kg/injection, schedule: Q01DX009 (ip), vehicle: saline with Tween-80", "result": "94 % of control"}, {"measurement": "T/C", "setting": "dose: 400.0 mg/kg/injection, schedule: Q04DX003 (ip), vehicle: saline with Tween-80", "result": "95 % of control"}]}
{"molecule": "COC(=O)c1ccc(C(=O)OC)o1", "values": [{"measurement": "T/C", "setting": "[2]", "result": "113 % of control"}, {"measurement": "T/C", "setting": "[5]", "result": "98 % of control"}, {"measurement": "T/C", "setting": "[8]", "result": "106 % of control"}]}
{"molecule": "C/C(N=Nc1ccc([N+](=O)[O-])cc1)=N\\Nc1ccccc1", "values": [{"measurement": "T/C", "setting": "dose: 50.0 mg/kg/injection, schedule: Q01DX009 (ip), vehicle: Klucel (hydroxypropylcellulose) (HPC)", "result": "102 % of control"}, {"measurement": "T/C", "setting": "[1]", "result": "107 % of control"}, {"measurement": "T/C", "setting": "[4]", "result": "112 % of control"}, {"measurement": "T/C", "setting": "[7]", "result": "97 % of control"}]}
{"molecule": "COCCOC(C)C(/C=N/NC(N)=S)=N/NC(N)=S", "note": "(stereo not given)", "values": [{"measurement": "T/C", "setting": "dose: 50.0 mg/kg/injection, schedule: Q01DX001 (ip), vehicle: saline", "result": "100 % of control"}, {"measurement": "T/C", "setting": "dose: 100.0 mg/kg/injection, schedule: Q01DX001 (ip), vehicle: saline", "result": "100 % of control"}, {"measurement": "T/C", "setting": "dose: 200.0 mg/kg/injection, schedule: Q01DX001 (ip), vehicle: saline", "result": "93 % of control"}, {"measurement": "T/C", "setting": "dose: 400.0 mg/kg/injection, schedule: Q01DX001 (ip), vehicle: saline", "result": "97 % of control"}]}
{"molecule": "COC(=O)C(CCC(=O)OC(C)(C)C)NC(=O)C(CCC(=O)OC(C)(C)C)NC(=O)OCc1ccccc1", "note": "(stereo not given) (Cbz-Glu(OtBu)-Glu(OtBu)-OMe; configuration not given here)", "values": [{"measurement": "T/C", "setting": "[3]", "result": "100 % of control"}, {"measurement": "T/C", "setting": "[6]", "result": "99 % of control"}, {"measurement": "T/C", "setting": "[9]", "result": "103 % of control"}]}
{"molecule": "O=C(c1ccccc1)c1ccc(Br)s1", "values": [{"measurement": "T/C", "setting": "[3]", "result": "96 % of control"}, {"measurement": "T/C", "setting": "[6]", "result": "97 % of control"}, {"measurement": "T/C", "setting": "[9]", "result": "94 % of control"}]}
{"molecule": "CN(N=O)C(=O)NC(N)=O", "values": [{"measurement": "T/C", "setting": "dose: 1.5 mg/kg/injection, schedule: Q01DX009 (ip), vehicle: saline", "result": "110 % of control"}, {"measurement": "T/C", "setting": "dose: 1.87 mg/kg/injection, schedule: Q01DX Z (ip), vehicle: carboxymethylcellulose (CMC)", "result": "115 % of control"}, {"measurement": "T/C", "setting": "dose: 10.0 mg/kg/injection, schedule: Q01DX Z (ip), vehicle: carboxymethylcellulose (CMC)", "result": "188 % of control"}, {"measurement": "T/C", "setting": "dose: 15.0 mg/kg/injection, schedule: Q01DX Z (ip), vehicle: carboxymethylcellulose (CMC)", "result": "177 % of control"}, {"measurement": "T/C", "setting": "dose: 30.0 mg/kg/injection, schedule: Q01DX Z (ip), vehicle: carboxymethylcellulose (CMC)", "result": "110 % of control"}, {"measurement": "T/C", "setting": "dose: 40.0 mg/kg/injection, schedule: Q01DX Z (ip), vehicle: carboxymethylcellulose (CMC)", "result": "91 % of control"}, {"measurement": "T/C", "setting": "dose: 50.0 mg/kg/injection, schedule: Q01DX Z (ip), vehicle: saline", "result": "122 % of control"}, {"measurement": "T/C", "setting": "dose: 75.0 mg/kg/injection, schedule: Q01DX Z (ip), vehicle: saline", "result": "112 % of control"}, {"measurement": "T/C", "setting": "dose: 100.0 mg/kg/injection, schedule: Q01DX Z (ip), vehicle: saline", "result": "92 % of control"}]}
